Each block holds one compound with its values, some of them ahead of it.
What was measured:
[1] = tested on: Human immunodeficiency virus 1; test: Antiviral activity against HIV1; type: functional, organism-based
HEK293 = test: Cytotoxicity against HEK293T cells; type: functional; conditions: Homo sapiens
[2] = tested on: Human immunodeficiency virus 1; test: Antiviral activity against HIV1 E138K mutant; type: functional, organism-based
[3] = tested on: Human immunodeficiency virus 1; test: Antiviral activity against HIV1 F227L mutant; type: functional, organism-based
[4] = tested on: Human immunodeficiency virus 1; test: Antiviral activity against HIV1 I135V mutant; type: functional, organism-based
[5] = tested on: Human immunodeficiency virus 1; test: Antiviral activity against HIV1 K103N mutant; type: functional, organism-based
[6] = tested on: Human immunodeficiency virus 1; test: Antiviral activity against HIV1 L100I mutant; type: functional, organism-based
[7] = tested on: Human immunodeficiency virus 1; test: Antiviral activity against HIV1 V106A mutant; type: functional, organism-based
[8] = tested on: Human immunodeficiency virus 1; test: Antiviral activity against HIV1 Y181C mutant; type: functional, organism-based
[9] = tested on: Human immunodeficiency virus 1; test: Antiviral activity against HIV1 Y188L mutant; type: functional, organism-based
[10] = tested on: Human immunodeficiency virus 1; test: Antiviral activity against HIV1 V179E mutant; type: functional, organism-based
[11] = tested on: Human immunodeficiency virus 1; test: Antiviral activity against HIV1 Y181H mutant; type: functional, organism-based
[12] = tested on: Human immunodeficiency virus 1; test: Antiviral activity against HIV1 Y181S mutant; type: functional, organism-based

Compound: CCCCC(=O)C12CC1(CCCC)c1cc(Cl)ccc1NC2=O (stereo not given)
- EC50 [1]: 6.3 µM
- CC50 (HEK293): > 10 µM

- EC50 [1]: > 10 µM
Compound: CCCCC12CC1(C(=O)Nc1ccc(C(=O)O)cc1)C(=O)Nc1ccc(Cl)cc12 (stereo not given)
- CC50 (HEK293): > 10 µM

Compound: C=CCCCC12CC1(C(=O)OCC)C(=O)Nc1ccc(Cl)cc12 (stereo not given)
- EC50 [1]: 0.001 µM
- CC50 (HEK293): > 10 µM
- EC50 [2]: 0.057 µM
- EC50 [3]: 0.009 µM
- EC50 [4]: 0.033 µM
- EC50 [5]: 1.25 µM
- EC50 [6]: 0.035 µM
- EC50 [7]: 0.26 µM
- EC50 [8]: > 10 µM
- EC50 [9]: > 10 µM
- EC50 [10]: 0.304 µM
- EC50 [11]: 0.089 µM
- EC50 [12]: 1.68 µM

- EC50 [1]: 0.197 µM
Compound: CCCCC12CC1(C#N)C(=O)Nc1ccc(Cl)cc12 (stereo not given)
- CC50 (HEK293): > 10 µM

- EC50 [1]: 2.69 µM
Compound: CCCCC12CC1(C(=O)Nc1ccccn1)C(=O)Nc1ccc(Cl)cc12 (stereo not given)
- CC50 (HEK293): > 10 µM

Compound: CCOC(=O)C12CC1(C1CC1)c1cc(Cl)ccc1NC2=O (stereo not given)
- EC50 [1]: > 10 µM
- CC50 (HEK293): > 10 µM

Compound: CCOC(=O)C12CC1(CCc1ccccc1)c1cc(Cl)ccc1NC2=O (stereo not given)
- EC50 [1]: 0.221 µM
- CC50 (HEK293): > 10 µM

- EC50 [1]: > 10 µM
Compound: CCCCC12CC1(C(=O)N1CCCC1)C(=O)Nc1ccc(Cl)cc12 (stereo not given)
- CC50 (HEK293): > 10 µM

Compound: CCOC(=O)C12CC1(c1ccc(-c3ccccc3)cc1)c1cc(Cl)ccc1NC2=O (stereo not given)
- EC50 [1]: > 10 µM
- CC50 (HEK293): > 10 µM

- EC50 [1]: > 10 µM
Compound: CCCCC12CC1(C(=O)N1CCC1)C(=O)Nc1ccc(Cl)cc12 (stereo not given)
- CC50 (HEK293): > 10 µM

- EC50 [1]: 0.743 µM
Compound: CCCCC12CC1(CO)C(=O)Nc1ccc(Cl)cc12 (stereo not given)
- CC50 (HEK293): > 10 µM

Compound: CCCCCCC12CC1(C(=O)OCC)C(=O)Nc1ccc(Cl)cc12 (stereo not given)
- EC50 [1]: 0.025 µM
- CC50 (HEK293): > 10 µM
- EC50 [2]: 0.098 µM
- EC50 [3]: 0.041 µM
- EC50 [4]: 0.066 µM
- EC50 [5]: 3.08 µM
- EC50 [6]: 0.053 µM
- EC50 [7]: 0.878 µM
- EC50 [8]: 2.25 µM
- EC50 [9]: > 10 µM
- EC50 [10]: 1.6 µM
- EC50 [11]: 0.061 µM
- EC50 [12]: 0.929 µM

Compound: CCOC(=O)C12CC1(Cc1ccccc1)c1cc(Cl)ccc1NC2=O (stereo not given)
- EC50 [1]: > 10 µM
- CC50 (HEK293): > 10 µM

Compound: CCOC(=O)C12CC1(C(C)C)c1cc(Cl)ccc1NC2=O (stereo not given)
- EC50 [1]: > 10 µM
- CC50 (HEK293): > 10 µM

Compound: CCCCC12CC1(C(=O)OCCC#N)C(=O)Nc1ccc(Cl)cc12 (stereo not given)
- EC50 [1]: 0.113 µM
- CC50 (HEK293): > 10 µM

- EC50 [1]: > 10 µM
Compound: CCCCC12CC1(C(=O)N(C)CC)C(=O)Nc1ccc(Cl)cc12 (stereo not given)
- CC50 (HEK293): > 10 µM

Compound: CCCCC12CC1(C(=O)Oc1ccccc1)C(=O)Nc1ccc(Cl)cc12 (stereo not given)
- EC50 [1]: > 10 µM
- CC50 (HEK293): > 10 µM

Compound: CCOC(=O)C12CC1(CC(C)C)c1cc(Cl)ccc1NC2=O (stereo not given)
- EC50 [1]: 0.057 µM
- CC50 (HEK293): > 10 µM
- EC50 [2]: 0.091 µM
- EC50 [3]: 0.022 µM
- EC50 [4]: 0.085 µM
- EC50 [5]: > 10 µM
- EC50 [6]: 0.063 µM
- EC50 [7]: 2.94 µM
- EC50 [8]: > 10 µM
- EC50 [9]: > 10 µM
- EC50 [10]: 3.95 µM
- EC50 [11]: 0.21 µM
- EC50 [12]: 0.901 µM

- EC50 [1]: 2.82 µM
Compound: CCCCC12CC1(C(=O)NCc1ccccc1)C(=O)Nc1ccc(Cl)cc12 (stereo not given)
- CC50 (HEK293): 8.82 µM

Compound: CCCCC12CC1(C(N)=O)C(=O)Nc1ccc(Cl)cc12 (stereo not given)
- EC50 [1]: 0.012 µM
- CC50 (HEK293): > 10 µM
- EC50 [2]: 0.046 µM
- EC50 [3]: 0.001 µM
- EC50 [4]: 0.015 µM
- EC50 [5]: 3.83 µM
- EC50 [6]: 0.013 µM
- EC50 [7]: 2.18 µM
- EC50 [8]: 7.96 µM
- EC50 [9]: > 10 µM
- EC50 [10]: 0.439 µM
- EC50 [11]: 0.063 µM
- EC50 [12]: 2.52 µM

Compound: CCCC12CC1(C(=O)OCC)C(=O)Nc1ccc(Cl)cc12 (stereo not given)
- EC50 [1]: 0.045 µM
- CC50 (HEK293): > 10 µM
- EC50 [2]: 0.132 µM
- EC50 [3]: 0.026 µM
- EC50 [4]: 0.097 µM
- EC50 [5]: > 10 µM
- EC50 [6]: 0.041 µM
- EC50 [7]: 1.01 µM
- EC50 [8]: > 10 µM
- EC50 [9]: > 10 µM
- EC50 [10]: 1.89 µM
- EC50 [11]: 0.21 µM
- EC50 [12]: 1.21 µM

- EC50 [1]: 1.33 µM
Compound: CCCCC12CC1(C(=O)Nc1ccccc1C(N)=O)C(=O)Nc1ccc(Cl)cc12 (stereo not given)
- CC50 (HEK293): > 10 µM

- EC50 [1]: 1.4 µM
Compound: CCCCC1(C)c2cc(Cl)ccc2NC(=O)C1C(=O)OCC (stereo not given)
- CC50 (HEK293): > 10 µM

- EC50 [1]: 0.16 µM
Compound: CCCCC12CC1(C(=O)Nc1cccc(C#N)c1)C(=O)Nc1ccc(Cl)cc12 (stereo not given)
- CC50 (HEK293): > 10 µM

Compound: CCCCC12CCC1(C(=O)OCC)C(=O)Nc1ccc(Cl)cc12 (stereo not given)
- EC50 [1]: 0.102 µM
- CC50 (HEK293): > 10 µM

From ChEMBL document CHEMBL1146842, “Design, synthesis, and biological evaluations of novel quinolones as HIV-1 non-nucleoside reverse transcriptase inhibitors” (Bioorg Med Chem Lett, 2006)
